Here are results for three compounds from the NIST ThermoML archive (doi:10.1016/j.fluid.2015.12.031).

Numbers after ± are expanded uncertainties.

For the data set the following is noted: Liquid; Resistive pulse heating.
As for `CCOC(=O)CC(=O)OCC` [diethyl 1,3-propanedioate], the Critical pressure was 2700 ± 80 kPa and the Critical temperature was 651 ± 7 K.

As for `CCOC(=O)CCC(=O)OCC` [diethyl butanedioate], the Critical pressure came to 2290 ± 70 kPa and the Critical temperature was 666 ± 7 K.

On to `CCOC(=O)CCCCC(=O)OCC` [diethyl hexanedioate], for which the Critical pressure is on record as 1990 ± 60 kPa and the Critical temperature turned out to be 697 ± 7 K.
